In US20250144130A1, “POLYSACCHARIDE COMPOUND WITH A DEFINED MOLECULAR STRUCTURE THAT CAN ELIMINATE THE TOXIC SIDE EFFECTS OF CHEMOTHERAPY DRUGS” (priority 2023, published 2025):
Marks after values point to notes of the source that are not given here.

Assays:
LLC-bearing mice = test: Antitumor effect of GLP-3 combined with chemotherapy on LLC-bearing mice (tumor volume, inhibition rates, tumor index); format: in vivo, C57 mice; settings: cisplatin 4 mg/kg ip q3d
Protocol: Healthy LLC cells were inoculated subcutaneously into the left shoulder of 5 healthy male C57 mice. […] This suspension was then injected subcutaneously into the axilla of 60 healthy male C57 mice to establish a solid tumor model. […] Longest and shortest diameters of tumors were measured every three days to calculate tumor volume, and mouse weights were recorded every three days. At the end of the experiment, tumors, spleens, and thymuses were harvested and weighed to calculate tumor, spleen, and thymus indices. […] [table] […] Where TRTV is the relative tumor volume in the experimental group, and CRTV is the relative tumor volume in the model control group. Relative tumor volume (RTV)=Vt/V0, where Vt is the tumor volume on day t of dosing, and V0 is the tumor volume at the time of grouping. Evaluation criteria: […] Where T represents the average tumor weight in the treatment group, and C represents the average tumor weight in the model control group. Evaluation criteria: […] Tumor index (%)=(tumor weight/body weight)×100%.

[1] = Mortality, body weight, spleen and thymus indices in LLC-bearing mice; format: in vivo, C57 mice; settings: cisplatin 4 mg/kg ip q3d
Protocol: Healthy LLC cells were inoculated subcutaneously into the left shoulder of 5 healthy male C57 mice. Once tumors reached a volume of 2,000-3,000 mm^3, they were harvested and homogenized to prepare a homogenate suspension. This suspension was then injected subcutaneously into the axilla of 60 healthy male C57 mice to establish a solid tumor model. Once all mouse tumors averaged a volume of about 150 mm^3, mice were randomized into groups based on tumor volume and were administered the respective drugs or drug solvents via oral gavage or intraperitoneal injection for 19 consecutive days. Longest and shortest diameters of tumors were measured every three days to calculate tumor volume, and mouse weights were recorded every three days. At the end of the experiment, tumors, spleens, and thymuses were harvested and weighed to calculate tumor, spleen, and thymus indices.
(§1) Spleen and thymus organ coefficients: After the last dose, spleen, thymus, and tumor weights are measured, and organ coefficients are calculated.
(§2) Immune organ index (mg/g)=(organ mass/body weight)×1000.

H22-bearing mice = test: Antitumor effect of GLP-3 combined with chemotherapy on H22-bearing mice (tumor volume, inhibition rates, tumor index); format: in vivo, C57 mice; settings: sc H22 mice, cisplatin 3 mg/kg ip q3d
Protocol: Longest and shortest diameters of tumors were measured every three days to calculate tumor volume, and mouse weights were recorded every three days. At the end of the experiment, tumors, spleens, and thymuses were harvested and weighed to calculate tumor, spleen, and thymus indices. […] [table] […] Where TRTV is the relative tumor volume in the experimental group, and CRTV is the relative tumor volume in the model control group. Relative tumor volume (RTV)=Vt/V0, where Vt is the tumor volume on day t of dosing, and V0 is the tumor volume at the time of grouping. Evaluation criteria: […] Where T represents the average tumor weight in the treatment group, and C represents the average tumor weight in the model control group. Evaluation criteria: […] Tumor index (%)=(tumor weight/body weight)×100%.

[2] = Mortality, body weight, spleen and thymus indices in H22-bearing mice; format: in vivo, C57 mice; settings: sc H22 mice, cisplatin 3 mg/kg ip q3d
Protocol: A homogenate suspension of H22 hepatoma solid tumors was injected subcutaneously under the axilla of 50 healthy male C57 mice to create a solid tumor model. Once all mouse tumors averaged a volume of about 200 mm^3, mice were randomized into groups based on tumor volume and were administered the respective drugs or drug solvents via oral gavage or intraperitoneal injection for 22 consecutive days. Longest and shortest diameters of tumors were measured every three days to calculate tumor volume, and mouse weights were recorded every three days. At the end of the experiment, tumors, spleens, and thymuses were harvested and weighed to calculate tumor, spleen, and thymus indices.
as §1, §2

[3] = tested on: orthotopic H22-bearing mice; test: Tumor by small animal in vivo imaging, GLP-3 combined with radiotherapy, orthotopic H22-bearing mice; parameters: species or system C57 mice; settings: radiotherapy 2 Gy/d + cisplatin 4 mg/kg ip q3d
Protocol: This study used the proposed clinical dose as a basis for the experiment. The radiotherapy intensity for this study was designed to be 2 Gy per day. [table] Tumor volume measurement: Tumor volume changes were measured weekly using small animal in vivo imaging technology.

[4] = Mortality, body weight and organ coefficients in orthotopic H22-bearing mice; settings: radiotherapy 2 Gy/d + cisplatin 4 mg/kg ip q3d
From the text: (§3) Liver cancer (H22) cells, labeled with Luc fluorescent marker at a concentration of 1×10^7 cells/mL, were initially inoculated into the peritoneal cavity of 8 male C57 mice. After the development of ascites, the ascitic fluid was aseptically extracted, washed with HBSS buffer, centrifuged to discard the supernatant, and stained with Trypan Blue, and cells in the ascitic fluid were counted under a microscope. The cell concentration was adjusted to […] with HBSS buffer and inoculated into the right hepatic region of 80 male C57 mice, at a volume of 10 μL per mouse, to prepare the orthotopic tumor-bearing mice. One week later, the liver tumor formation in mice was detected using a small animal in vivo imaging system. […] An additional 10 mice served as the normal control group. Except for the normal control group, all other animals underwent radiotherapy using an animal radiotherapy instrument. The animals were anesthetized, placed in homemade lead clothing, and the tumor tissue was exposed for radiation treatment at an intensity of 2 Gy/day for 5 consecutive days. The normal control group and the model control group were administered pure water by oral gavage. […] After the last dose, blood was collected from the orbital plexus to test blood WBC, RBC, liver and kidney function indicators (ALT, AST, BUN, CRE), and CD3^+/CD4^+, CD3^+/CD8^+ ratios. The spleen, thymus, and tumors were weighed to calculate organ coefficients, and the liver, spleen, and thymus underwent histopathological examination.
Animal survival and general condition: Weight was recorded weekly, along with any deaths among the animals.
Immune organs: The thymus, spleen, tumor, and liver were weighed, and organ coefficients were calculated as follows: organ coefficient (%)=organ weight/fasting body weight×100%.

[5] = tested on: lymphocyte subtypes CD3^+/CD4^+ and CD3^+/CD8^+; test: Blood CD3+/CD4+ and CD3+/CD8+ ratios by flow cytometry in orthotopic H22-bearing mice; format: in vivo, C57 mice; settings: radiotherapy 2 Gy/d + cisplatin 4 mg/kg ip q3d, after the last dose, Mean ± SEM
Protocol: CD4^+ and CD8^+ content measurement: After the last dose, lymphocyte subtypes CD3^+/CD4^+ and CD3^+/CD8^+ in the blood were measured using flow cytometry.

[6] = Histopathological examination of liver, spleen and thymus in orthotopic H22-bearing mice; format: in vivo, C57 mice; settings: radiotherapy 2 Gy/d + cisplatin 4 mg/kg ip q3d
From the text: as §3, with “The spleen, thymus, and tumors were weighed to calculate organ coefficients, and the liver, spleen, and thymus underwent histopathological examination.” left out

[7] = after the last dose, Mean ± SEM

N.N.[Cl][Pt][Cl] [Cisplatin]
Tumor volume (LLC-bearing mice; D0): 137.9 ± 50^ mm^3 | Relative tumor growth inhibition rate (compared to model control group) (LLC-bearing mice; D3): 4.3% | Tumor volume (LLC-bearing mice; D3): 300.1 ± 102.7 mm^3 | Relative tumor growth inhibition rate (compared to model control group) (LLC-bearing mice; D6): 30.0% | Tumor volume (LLC-bearing mice; D6): 486.6 ± 188.9 mm^3 | Relative tumor growth inhibition rate (compared to model control group) (LLC-bearing mice; D9): 54.6^+ % | Tumor volume (LLC-bearing mice; D9): 771.3 ± 256^+ mm^3 | Relative tumor growth inhibition rate (compared to model control group) (LLC-bearing mice; D9, listed as cisplatin): 54.6% | Relative tumor growth inhibition rate (compared to model control group) (LLC-bearing mice; D12): 63.8^+ % | Tumor volume (LLC-bearing mice; D12): 1173.9 ± 488.8^+ mm^3 | Relative tumor growth inhibition rate (compared to model control group) (LLC-bearing mice; D12, listed as cisplatin): 63.8% | Relative tumor growth inhibition rate (compared to model control group) (LLC-bearing mice; D15): 77.3^+ % | Tumor volume (LLC-bearing mice; D15): 1409.5 ± 820.5^+ mm^3 | Relative tumor growth inhibition rate (compared to model control group) (LLC-bearing mice; D15, listed as cisplatin): 77.3% | Relative tumor growth inhibition rate (compared to model control group) (LLC-bearing mice; D19): 79.5^+ % | Tumor volume (LLC-bearing mice; D19): 1771.9 ± 1091.6^+ mm^3 | Relative tumor growth inhibition rate (compared to model control group) (LLC-bearing mice; D19, listed as cisplatin): 79.5% | Tumor index (LLC-bearing mice; after the last dose): 9.09 ± 4.19^+ % | Tumor growth inhibition rate vs. the model control group (LLC-bearing mice; by average tumor weight): 74.4% | Mortality rate ([1]; 19 days): 0.0% | Number of deaths ([1]; 19 days): 0 | Survival time ([1]; 19 days): 19 ± 0 days | Weight ([1]; D0): 21.5 ± 1.3 g | Weight ([1]; D3): 20.9 ± 1.3^ g | Weight ([1]; D6): 20.4 ± 1.9^+ g | Weight ([1]; D9): 18.3 ± 2.6^+ g | Weight ([1]; D12): 18.6 ± 2.8^+ g | Weight ([1]; D15): 17.7 ± 2.7^+ g | Weight ([1]; D19): 16.8 ± 2.8^+ g | Spleen index ([1]; after the last dose): 2.84 ± 0.77^+ mg/g | Tumor volume (H22-bearing mice; D0): 188.2 ± 48.7 mm^3 | Relative tumor growth inhibition rate (compared to model control group) (H22-bearing mice; D3): 11.7% | Tumor volume (H22-bearing mice; D3): 338.6 ± 69.1 mm^3 | Relative tumor growth inhibition rate (compared to model control group) (H22-bearing mice; D6): 19.5% | Tumor volume (H22-bearing mice; D6): 356.9 ± 77.9 mm^3 | Relative tumor growth inhibition rate (compared to model control group) (H22-bearing mice; D9): 53.1^+ % | Tumor volume (H22-bearing mice; D9): 598.5 ± 219.2^+ mm^3 | Relative tumor growth inhibition rate (compared to model control group) (H22-bearing mice; D9, listed as cisplatin): 53.1% | Relative tumor growth inhibition rate (compared to model control group) (H22-bearing mice; D12): 64.4^+ % | Relative tumor growth inhibition rate (compared to model control group) (H22-bearing mice; D12, listed as cisplatin): 64.4% | Relative tumor growth inhibition rate (compared to model control group) (H22-bearing mice; D15): 73.1^+ % | Tumor volume (H22-bearing mice; D15): 900.4 ± 376.4^+ mm^3 | Relative tumor growth inhibition rate (compared to model control group) (H22-bearing mice; D15, listed as cisplatin): 73.1% | Relative tumor growth inhibition rate (compared to model control group) (H22-bearing mice; D18): 71.6^+ % | Tumor volume (H22-bearing mice; D18): 1098.3 ± 397^+ mm^3 | Relative tumor growth inhibition rate (compared to model control group) (H22-bearing mice; D18, listed as cisplatin): 71.6% | Relative tumor growth inhibition rate (compared to model control group) (H22-bearing mice; D22): 75.0^+ % | Tumor volume (H22-bearing mice; D22): 1526.5 ± 535.7^+ mm^3 | Relative tumor growth inhibition rate (compared to model control group) (H22-bearing mice; D22, listed as cisplatin): 75.0% | Tumor index (H22-bearing mice; after the last dose): 6.6 ± 2.2^+ % | Tumor growth inhibition rate vs. the model control group (H22-bearing mice; by average tumor weight): 75.7% | Mortality rate ([2]; 22 days): 0.0% | Number of deaths ([2]; 22 days): 0 | Survival time ([2]; 22 days): 22 ± 0 days | Weight ([2]; D0): 18.9 ± 0.8^+ g | Weight ([2]; D3): 19.9 ± 0.7 g | Weight ([2]; D6): 19.5 ± 0.6^+ g | Weight ([2]; D9): 19.6 ± 0.8 g | Weight ([2]; D12): 19.5 ± 0.8^+ g | Weight ([2]; D15): 19.2 ± 0.7^+ g | Weight ([2]; D18): 18.5 ± 0.9^+ g | Spleen index ([2]; after the last dose): 3.4 ± 0.3^+ mg/g | Thymus index ([2]; after the last dose): 0.6 ± 0.1 mg/g | Tumor ([3]; W 0, Mean ± SEM): 766250 ± 515323 | Tumor ([3]; W 1, Mean ± SEM): 5188000 ± 2224171 | Mortality rate ([4]; 14 days): 60% | Number of deaths ([4]; 14 days): 6 | Number of surviving animals ([4]; 14 days): 4 | Weight ([4]; W0, Mean ± SEM): 17.1 ± 0.4^++ g | Weight ([4]; W1, Mean ± SEM): 13.6 ± 0.9**^ g | Weight ([4]; W2, Mean ± SEM): 14.6 ± 1.0 g | Liver coefficient [4, 7]: 7.962 ± 0.914 % | Spleen coefficient [4, 7]: 0.424 ± 0.140 % | Thymus coefficient [4, 7]: 0.039 ± 0.017% | CD3^+/CD4^+ [5]: 23.05 ± 12.70 | CD3^+/CD8^+ [5]: 126.56 ± 67.07 | Histopathology of liver, spleen and thymus [6]: extensive H22 cell infiltration and necrosis were observed along with increased extramedullary hematopoiesis in the spleen and a decreased number of white pulp cells, with a reduction in thymic lymphocyte counts
